# Data published in patent publication EP4744680A1, “TARGETED CHEMICAL DRUG AND PREPARATION METHOD THEREFOR, PHARMACEUTICAL COMPOSITION, AND USE OF TARGETED CHEMICAL DRUG” (Bai Yao Zhi Da (Beijing) Nanobio Technology Co., Ltd., priority 2023, dated 2025).
# System: N87 gastric cancer
# Test: In vivo antitumor efficacy in an N87 gastric cancer mouse model (drug of Example 1)
# Set-up: species or system mouse (BALB/c nude)
# Details: 0.06mg i.v. (tail vein) twice per week for 5 weeks
# Protocol: (1)..Cell culture: Tumor cells were cultured in RPMI-1640 medium supplemented with heat-inactivated 10% fetal bovine serum, 100 U/mL penicillin, 100 µg/mL streptomycin, and 2 mM L-glutamine, in a humidified incubator at 37 °C with 5% CO2.Subculture was performed every 3-4 days after confluence; tumor cells in logarithmic growth phase were used for in vivo inoculation. (2).Tumor cell inoculation and grouping: Tumor cells (1 × 10^7) resuspended in PBS: Matrigel were inoculated subcutaneously into the right flank of each mouse.When tumors reached approximately 80-100 mm^3, animals were randomized into groups for dosing. […] (3).Dosing Regimen: Table 22
# The dosing volume is 200 µL per 20 g mouse, with the administered dose calculated on a body-weight basis; the observation period is 60 days, adjustable according to the condition of the animals and tumor status.
# • a. Tumor volume: Measured twice weekly using vernier calipers. The long and short diameters were recorded; tumor volume was calculated as: Volume = 0.5 × length × (width)^2. • b. Post-administration reactions in animals: At each tumor-measurement time point, body weight was recorded.Changes in body weight relative to dosing time were documented.Survival and general health (e.g., activity, feeding) were monitored throughout the dosing period. • c. Tumor excision, weighing, and photography: at the end of the study, mice were euthanized; tumors were excised, photographed and collected; specimens were fixed or snap-frozen as required. • a) Photograph each animal post-euthanasia with tumor in situ; • b) Dissect and weigh each subcutaneous tumor; • c) Arrange all tumors on a white board according to group codes and photograph; then bisect longitudinally, realign by group code, and photograph again. • d) Tumors were snap-frozen or formalin-fixed per requirements. • d.
# • a. […] Inhibition Rate of Tumor Weight (IRTW, %) IRTW (%) = (Wcontrol group−Wtreatment group)/Wcontrol group × 100, [formula] where W is tumor weight.IRTW > 60% is considered effective.
smiles,measurement,setting,value
"COc1cccc2c1C(=O)c1c(O)c3c(c(O)c1C2=O)C[C@@](O)(C(=O)CO)C[C@@H]3O[C@H]1C[C@H](N)[C@@H](O)[C@H](C)O1 [Epirubicin drug substance (API), Epirubicin]",Tumor Growth Inhibition Rate at Different Days Post-Inoculation (%),Day 9,8.44%
same,Tumor Growth Inhibition Rate at Different Days Post-Inoculation (%),Day 13,0.40%
same,Tumor Growth Inhibition Rate at Different Days Post-Inoculation (%),Day 17,6.68%
same,Tumor Growth Inhibition Rate at Different Days Post-Inoculation (%),Day 20,7.83%
same,Tumor Growth Inhibition Rate at Different Days Post-Inoculation (%),Day 23,12.46%
same,Tumor Growth Inhibition Rate at Different Days Post-Inoculation (%),Day 27,23.34%
same,Tumor Growth Inhibition Rate at Different Days Post-Inoculation (%),Day 30,25.87%
same,Tumor Growth Inhibition Rate at Different Days Post-Inoculation (%),Day 34,31.16%
same,Tumor Growth Inhibition Rate at Different Days Post-Inoculation (%),Day 37,36.26%
